{"source": "ChEMBL document CHEMBL1137877", "about": "“Synthesis and evaluation of 4-(1-aminoalkyl)-N-(4-pyridyl)cyclohexanecarboxamides as Rho kinase inhibitors and neurite outgrowth promoters” (2004)", "tested_on": "NG108-15", "assay": "Mean percent neurite outgrowth (cells with neurites longer than cell body/total cells) was determined in NG108-15 cells after 4 hr incubation at 35 uM", "type": "functional, Mus musculus x Rattus norvegicus", "data": [{"smiles": "C[C@@H](N)[C@H]1CC[C@H](C(=O)Nc2ccncc2)CC1.Cl.Cl", "values": [{"measurement": "Activity", "result": 82, "unit": "%"}]}, {"smiles": "CCC[C@H](N)C1CCC(C(=O)Nc2ccncc2)CC1.Cl.Cl", "note": "(stereo partly specified)", "values": [{"measurement": "Activity", "result": 23, "unit": "%"}]}, {"smiles": "CCCCCCCC[C@@H](N)C1CCC(C(=O)Nc2ccncc2)CC1.Cl.Cl", "note": "(stereo partly specified)", "values": [{"measurement": "Activity", "result": 0, "unit": "%"}]}, {"smiles": "CCC[C@@H](N)C1CCC(C(=O)Nc2ccncc2)CC1.Cl.Cl", "note": "(single isomer, unassigned; (+))", "values": [{"measurement": "Activity", "result": 48, "unit": "%"}]}, {"smiles": "C[C@H](N)C1CCC(C(=O)Nc2ccncc2)CC1.Cl.Cl", "note": "(stereo partly specified)", "values": [{"measurement": "Activity", "result": 70, "unit": "%"}]}, {"smiles": "C[C@@H](N)C1CCC(C(=O)Nc2ccncc2)CC1.Cl.Cl", "note": "(stereo partly specified)", "values": [{"measurement": "Activity", "result": 68, "unit": "%"}]}]}
